Here are results for seven compounds from US20110053919A1, “Active Compound Combinations Having Insecticidal and Acaricidal Properties” (BAYER CROPSCIENE AG, priority 2006, published 2011).

Common to all, as to assay type: in vivo
In experiment [1] the test system is green peach aphid (Myzus persicae). Briefly: Myzus persicae test (spray treatment of infested cabbage leaves). The following applies: single active compound. The source says:
(§1) The expected action for a given combination of two active compounds can be calculated as follows, according to S. R. Colby, Weeds 15 (1967), 20-22:
(§2) • X is the kill rate, expressed as a percentage of the untreated control, when employing active compound A at an application rate of m g/ha or in a concentration of m ppm, • Y is the kill rate, expressed as a percentage of the untreated control, when employing active compound B at an application rate of n g/ha or in a concentration of n ppm and • E is the kill rate, expressed as a percentage of the untreated control, when employing active compounds A and B at application rates of m and n g/ha or in a concentration of m and n ppm, then
(§3) If the actual kill rate exceeds the calculated value, the kill of the combination is superadditive, i.e. a synergistic effect is present. In this case, the actually observed kill rate must exceed the value calculated using the above formula for the expected kill rate (E).
(§4) Solvents: 78 parts by weight of acetone • • 1.5 parts by weight of dimethylformamide Emulsifier: 0.5 part by weight of alkylaryl polyglycol ether
(§5) To produce a suitable preparation of active compound, 1 part by weight of active compound is mixed with the stated amounts of solvents and emulsifier, and the concentrate is diluted with emulsifier-containing water to the desired concentration.
Cabbage leaves (Brassica oleracea) which are heavily infested by the green peach aphid (Myzus persicae) are treated by spraying with the active compound preparation of the desired concentration.
After the desired period of time, the kill in % is determined. 100% means that all aphids have been killed; 0% means that none of the aphids have been killed. The kill rates determined are entered into Colby's formula.

Experiment [2] concerns larvae of the army worm (Spodoptera frugiperda). Briefly: Spodoptera frugiperda larvae test (sprayed cabbage leaves). The following applies: single active compound.
Description: as §1, §2, §3
Spodoptera frugiperda Larvae Test
as §4, §5
Cabbage leaves (Brassica oleracea) are treated by spraying with the active compound preparation of the desired concentration and are populated with larvae of the army worm (Spodoptera frugiperda) while the leaves are still moist.
After the desired period of time, the kill in % is determined. 100% means that all caterpillars have been killed; 0% means that none of the caterpillars have been killed. The kill rates determined are entered into Colby's formula.

For experiment [3], the system named is larvae of the mustard beetle (Phaedon cochleariae). Briefly: Phaedon cochleariae larvae test (sprayed cabbage leaves). As to conditions: 100 g/ha, single active compound.
Description: as §1, §2, §3
Phaedon cochleariae Larvae Test
as §4, §5
Cabbage leaves (Brassica oleracea) are treated by spraying with the active compound preparation of the desired concentration and are populated with larvae of the mustard beetle (Phaedon cochleariae) while the leaves are still moist.
After the desired period of time, the kill in % is determined. 100% means that all beetle larvae have been killed; 0% means that none of the beetle larvae have been killed. The kill rates determined are entered into Colby's formula.

The test system of experiment [4] is greenhouse red spider mite (Tetranychus urticae). Put plainly: Tetranychus test, OP-resistant/spray treatment (bean leaf disks). As to conditions: 0.16 g/ha, single active compound.
Description: as §1, §2, §3
OP-Resistant/Spray Treatment
as §4, §5
Disks of bean leaves (Phaseolus vulgaris) which are infested by all stages of the greenhouse red spider mite (Tetranychus urticae) are sprayed with an active compound preparation of the desired concentration.
After the desired period of time, the activity in % is determined. 100% means that all spider mites have been killed; 0% means that none of the spider mites have been killed.

For the compound `CC(COc1ccc(Oc2ccccc2)cc1)Oc1ccccn1` (centres unmarked) [pyriproxifen, pyriproxyfen], in experiment [1] (100 g/ha), the “Kill in % after 1d” value came to 0%. Moreover, the “Kill in % after 2d” value in experiment [2] (100 g/ha) was 0%.
Turning to `CC(C)N1C(=O)N(c2ccccc2)CS/C1=N\C(C)(C)C` [buprofezin], the “Kill in % after 2d” value in experiment [3] came out at 0%.
For `N#CCNC(=O)c1cnccc1C(F)(F)F` [flonicamid], the “Kill in % after 1d” value in experiment [1] (100 g/ha) was found to be 30%. Also, the “Kill in % after 2d” value in experiment [3] is reported as 0%.
As for `Cc1ccc(/N=C/N(C)/C=N/c2ccc(C)cc2C)c(C)c1` [amitraz], the “Kill in % after 2d” value in experiment [2] (20 g/ha) was determined as 0%. In experiment [4], the “Kill in % after 6d” value stood at 0%.
On to `CCOC(=O)OC1=C(c2cc(C)ccc2C)C(=O)N[C@]12CC[C@@H](OC)CC2` [compound (II)], for which the “Kill in % after 1d” value in experiment [1] (0.8 g/ha), in experiment [1] (4 g/ha) and in experiment [1] (20 g/ha) was 0% in each case. In addition, the “Kill in % after 2d” value is on record as 0% in experiment [3] and 17% in experiment [2] (20 g/ha). In addition, the “Kill in % after 6d” value in experiment [4] worked out at 10%.
Take `CC1=NNC(=O)N(/N=C/c2cccnc2)C1` [pymetrozine]: the “Kill in % after 1d” value in experiment [1] (0.8 g/ha) is listed as 40%.
Consider `CCOC(=O)OC1=C(c2cc(C)ccc2C)C(=O)NC12CCC(OC)CC2` (centres unmarked) [compound (IIa)], for which the “Kill in % after 1d” value in experiment [1] (0.8 g/ha), in experiment [1] (4 g/ha) and in experiment [1] (20 g/ha) was 0% throughout. For the same compound, the results for the “Kill in % after 2d” value in experiment [3] and in experiment [2] (20 g/ha) were 0% and 17%, respectively. Moreover, the “Kill in % after 6d” value in experiment [4] is listed as 10%.
